Experimental data as given in patent USRE47689E1, “Compounds for treating spinal muscular atrophy” (PTC Therapeutics, Inc., priority 2011, dated 2019).
Where two headings read alike, the source gives them in different places.

What was measured:
[1] = tested on: SMN2 minigene (full length SMN2 minigene mRNA containing SMN2 exon 7); experiment: SMN2 minigene mRNA splicing RT-qPCR assay in cultured cells; type: cell-based, human; details: for EC (1.5-fold): Homo sapiens, HEK293-H, read-out: EC1.5x for production of full length SMN2 mRNA
Procedure, shortened: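 Lysates → one-step RT-qPCR, minigene-specific primers (0.4 μM final) + GAPDH multiplex, 40 cycles. FL/GAPDH vs DMSO; EC1.5x, star-binned.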

[2] = tested on: Smn protein; experiment: Smn protein assay in cultured cells (SMN HTRF); type: cell-based, human; details: for EC1.5x (concentration giving 1.5-fold Smn protein increase): read-out: EC1.5x for Smn protein expression
Procedure, shortened: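 Smn in SMA fibroblast lysates, measured by anti-SMN HTRF after 48 h compound exposure; EC1.5x from fold change over vehicle.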

[3] = HEK293H cells stably transfected with SMN2-A minigene, 24 hours, 7-point concentration curve, 1.5-fold relative to vehicle-treated cells
[4] = SMA Type 1 patient fibroblast cells (GM03813), 48 hours, 7-point concentration curve, SMN HTRF, concentration producing 1.5 times Smn protein vs DMSO vehicle control
[5] = SMA patient fibroblast cells, 48 hours, 7-point concentration data, fold increase relative to vehicle control (SMN HTRF)

melting point [°C] | Compound | EC (1.5-fold) [1, 3] [µM] | EC1.5x (concentration giving 1.5-fold Smn protein increase) [2, 4] [nM] | maximum fold (Fold) increase of Smn protein [2, 5] | EC (1.5-fold) ([1]; 24 h) [µM] | maximum fold (Fold) increase of Smn protein [2] | EC1.5x (concentration giving 1.5-fold Smn protein increase) [2] [nM] | EC1.5x for production of full length SMN2 mRNA [1, 3]
207 to 212 | Cc1cn2cc(-c3cc4ccc(C5CCN(CCO)CC5)cc4oc3=O)nc2c(C)n1 [Compound 750, 3-(6,8-dimethylimidazo[1,2-a]pyrazin-2-yl)-7-[1-(2-hydroxyethyl)piperidin-4-yl]-2H-chromen-2-one] | < 0.1 | < 300 | ***** (fold increase >1.65) | – | – | – | –
189 to 195 | Cc1cn2cc(-c3cc4ccc(CN5CCNCC5)cc4oc3=O)nc2c(C)n1 [Compound 848, 3-(6,8-dimethylimidazo[1,2-a]pyrazin-2-yl)-7-(piperazin-1-ylmethyl)-2H-chromen-2-one] | < 0.1 | 300 to 1000 | ***** (fold increase >1.65) | – | – | – | –
275 to 277 | Cc1cn2cc(-c3cc4ccc(N5CCN6CCCCC6C5)cc4oc3=O)nc2cn1 (stereo not drawn) [Compound 635, 3-(6-methylimidazo[1,2-a]pyrazin-2-yl)-7-(octahydro-2H-pyrido[1,2-a]pyrazin-2-yl)-2H-chromen-2-one] | < 0.1 | < 300 | **** (fold increase between >1.5 and ≤1.65) | – | – | – | –
278 to 280 | CN1CCN(c2ccc3cc(-c4cn5cccc(F)c5n4)c(=O)oc3c2)CC1 [Compound 150, 3-(8-fluoroimidazo[1,2-a]pyridin-2-yl)-7-(4-methylpiperazin-1-yl)-2H-chromen-2-one] | 0.3 to 1 | 3000 to 10000 | *** (fold increase between >1.35 and ≤1.5) | – | – | – | –
157 to 161 | CC(C)NCc1ccc2cc(-c3nc4c(Cl)cccc4s3)c(=O)oc2c1 [Compound 10, 3-(4-chloro-1,3-benzothiazol-2-yl)-7-[(propan-2-ylamino)methyl]-2H-chromen-2-one] | 0.3 to 1 | – | * (maximum fold increase of ≤1.2) | – | – | – | –
150 to 152 | COc1cccc(-c2cc3ccc(N4CCN[C@H](C)C4)cc3oc2=O)n1 [Compound 361, 3-(6-methoxypyridin-2-yl)-7-[(3R)-3-methylpiperazin-1-yl]-2H-chromen-2-one] | 1 to 3 | – | ** (fold increase between >1.2 and ≤1.35) | – | – | – | –
268 to 278 | Cc1ccn2cc(-c3cc4c(F)cc(N5CCNCC5)cc4oc3=O)nc2c1 [Compound 424, 5-fluoro-3-(7-methylimidazo[1,2-a]pyridin-2-yl)-7-(piperazin-1-yl)-2H-chromen-2-one] | 0.1 to 0.3 | < 300 | *** (fold increase between >1.35 and ≤1.5) | – | – | – | –
185 to 188 | CN(C)CCN(C)c1ccc2cc(-c3cn4ccsc4n3)c(=O)oc2c1 [Compound 202, 7-{[2-(dimethylamino)ethyl](methyl)amino}-3-(imidazo[2,1-b][1,3]thiazol-6-yl)-2H-chromen-2-one] | 0.3 to 1 | – | ** (fold increase between >1.2 and ≤1.35) | – | – | – | –
177 to 182 | Cc1cn2cc(-c3cc4ccc(N5CCN[C@@H](C)C5)cc4oc3=O)nc2s1 [Compound 232, 3-(2-methylimidazo[2,1-b][1,3]thiazol-6-yl)-7-[(3S)-3-methylpiperazin-1-yl]-2H-chromen-2-one] | 0.3 to 1 | – | * (maximum fold increase of ≤1.2) | – | – | – | –
206 to 209 | Cc1cn2cc(-c3cc4ccc(N5CCN(C)[C@H](C)C5)cc4oc3=O)ccc2n1 [Compound 661, 7-[(3R)-3,4-dimethylpiperazin-1-yl]-3-(2-methylimidazo[1,2-a]pyridin-6-yl)-2H-chromen-2-one] | < 0.1 | < 300 | ***** (fold increase >1.65) | – | – | – | –
253 to 255 | O=c1oc2cc(N3CCNCC3)ccc2cc1Nc1ccc(Cl)cn1 [Compound 65, 3-[(5-chloropyridin-2-yl)amino]-7-(piperazin-1-yl)-2H-chromen-2-one] | 0.3 to 1 | – | * (maximum fold increase of ≤1.2) | – | – | – | –
242 to 252 | Cc1cc(F)c2nc(-c3cc4ccc(N5CCCNCC5)cc4oc3=O)cn2c1 [Compound 427, 7-(1,4-diazepan-1-yl)-3-(8-fluoro-6-methylimidazo[1,2-a]pyridin-2-yl)-2H-chromen-2-one] | 0.3 to 1 | – | *** (fold increase between >1.35 and ≤1.5) | – | – | – | –
174 to 176 | CN1CCCN(c2ccc3cc(-c4cn5cccc(F)c5n4)c(=O)oc3c2)CC1 [Compound 295, 3-(8-fluoroimidazo[1,2-a]pyridin-2-yl)-7-(4-methyl-1,4-diazepan-1-yl)-2H-chromen-2-one] | < 0.1 | 300 to 1000 | **** (fold increase between >1.5 and ≤1.65) | – | – | – | –
188 to 191 | Cc1ccn2cc(-c3cc4ccc(N(C)CCN(C)C)cc4oc3=O)nc2n1 [Compound 226, 7-{[2-(dimethylamino)ethyl](methyl)amino}-3-(7-methylimidazo[1,2-a]pyrimidin-2-yl)-2H-chromen-2-one] | 3 to 30 | – | * (maximum fold increase of ≤1.2) | – | – | – | –
164 to 168 | CC(C)NCc1ccc2cc(-c3nc4ccccc4s3)c(=O)oc2c1 [Compound 8, 3-(1,3-benzothiazol-2-yl)-7-[(propan-2-ylamino)methyl]-2H-chromen-2-one] | 1 to 3 | – | * (maximum fold increase of ≤1.2) | – | – | – | –
288 to 296 | O=c1oc2cc(N3CCN(CCO)CC3)ccc2cc1-c1cn2cc(Cl)cnc2n1 [Compound 347, 3-(6-chloroimidazo[1,2-a]pyrimidin-2-yl)-7-[4-(2-hydroxyethyl)piperazin-1-yl]-2H-chromen-2-one] | 3 to 30 | – | * (maximum fold increase of ≤1.2) | – | – | – | –
246 to 252 | Cc1cn2cc(-c3cc4ccc(N5C[C@H]6CCCN[C@H]6C5)cc4oc3=O)nc2c(C)n1 [Compound 781, 3-(6,8-dimethylimidazo[1,2-a]pyrazin-2-yl)-7-[(4aR,7aR)-octahydro-6H-pyrrolo[3,4-b]pyridin-6-yl]-2H-chromen-2-one] | – | – | ** (fold increase between >1.2 and ≤1.35) | – | – | – | ***** (EC1.5x≤0.1 μM)
207 to 217 | Cc1cn2cc(-c3cc4ccc(N5C[C@H]6CCCN(CCO)[C@H]6C5)cc4oc3=O)nc2c(C)n1 [Compound 785, 3-(6,8-dimethylimidazo[1,2-a]pyrazin-2-yl)-7-[(4aR,7aR)-1-(2-hydroxyethyl)octahydro-6H-pyrrolo[3,4-b]pyridin-6-yl]-2H-chromen-2-one] | < 0.1 | 1000 to 3000 | **** (fold increase between >1.5 and ≤1.65) | – | – | – | –
186 to 189 | Cc1cn2cc(-c3cc4ccc(N5CCNCC5)cc4oc3=O)cc2c(C)n1 [Compound 670, 3-(1,3-dimethylpyrrolo[1,2-a]pyrazin-7-yl)-7-(piperazin-1-yl)-2H-chromen-2-one] | < 0.1 | < 300 | ***** (fold increase >1.65) | – | – | – | –
251 to 253 | Cc1nc(Cl)cn2cc(-c3cc4ccc(N5CCN(C)[C@@H](C)C5)cc4oc3=O)nc12 [Compound 727, 3-(6-chloro-8-methylimidazo[1,2-a]pyrazin-2-yl)-7-[(3S)-3,4-dimethylpiperazin-1-yl]-2H-chromen-2-one] | 0.1 to 0.3 | 1000 to 3000 | *** (fold increase between >1.35 and ≤1.5) | – | – | – | –

Compound | melting point [°C] | EC (1.5-fold) [1, 3] [µM] | EC1.5x (concentration giving 1.5-fold Smn protein increase) [2, 4] [nM] | maximum fold (Fold) increase of Smn protein [2, 5] | EC (1.5-fold) ([1]; 24 h) [µM] | maximum fold (Fold) increase of Smn protein [2] | EC1.5x (concentration giving 1.5-fold Smn protein increase) [2] [nM] | EC1.5x for production of full length SMN2 mRNA [1, 3]
Cc1cn2cc(-c3cc4ccc(C5=CCN(C(C)C)CC5)cc4oc3=O)nc2c(C)n1 [Compound 802, 3-(6,8-dimethylimidazo[1,2-a]pyrazin-2-yl)-7-[1-(propan-2-yl)-1,2,3,6-tetrahydropyridin-4-yl]-2H-chromen-2-one] | 207 to 217 | – | – | – | < 0.1 | **** (key: *: maximum fold increase of ≤1.2; **: fold increase between >1.2 and ≤1.35; ***: fold increase between >1.35 and ≤1.5; ****: fold increase between >1.5 and ≤1.65; *****: fold increase >1.65) | < 300 | –
O=c1oc2cc(N3CCN4CCC3CC4)ccc2cc1-c1cn2ccsc2n1 [Compound 438, 7-(1,4-diazabicyclo[3.2.2]non-4-yl)-3-(imidazo[2,1-b][1,3]thiazol-6-yl)-2H-chromen-2-one] | > 300 | – | – | – | 0.1 to 0.3 | *** (key: *: maximum fold increase of ≤1.2; **: fold increase between >1.2 and ≤1.35; ***: fold increase between >1.35 and ≤1.5; ****: fold increase between >1.5 and ≤1.65; *****: fold increase >1.65) | 1000 to 3000 | –
